According to paper PMC8016166, “Identification of a Potent and Selective 5-HT1A Receptor Agonist with In Vitro and In Vivo Antinociceptive Activity” (ACS Chemical Neuroscience, 2020):

Legend:
5-HT1AR [1] = molecular target: T1, 5-HT1AR (Rattus norvegicus, UniProt P19327); assay: Effect of WAY100635 on compound-stimulated [35S]GTPγS binding (Tables SI-1, SI-2); assay type: biochemical; conditions: for Emax: basal set to 100%; for EC50: rat frontal cortex homogenates, read-out: pEC50 ± SEM, compound alone (converted); for shift ratio: with WAY100635 10^-7 M vs agonist alone
T1 construct: from tissue; hippocampus per the main-text methods
T1 sequence (P19327 1-422): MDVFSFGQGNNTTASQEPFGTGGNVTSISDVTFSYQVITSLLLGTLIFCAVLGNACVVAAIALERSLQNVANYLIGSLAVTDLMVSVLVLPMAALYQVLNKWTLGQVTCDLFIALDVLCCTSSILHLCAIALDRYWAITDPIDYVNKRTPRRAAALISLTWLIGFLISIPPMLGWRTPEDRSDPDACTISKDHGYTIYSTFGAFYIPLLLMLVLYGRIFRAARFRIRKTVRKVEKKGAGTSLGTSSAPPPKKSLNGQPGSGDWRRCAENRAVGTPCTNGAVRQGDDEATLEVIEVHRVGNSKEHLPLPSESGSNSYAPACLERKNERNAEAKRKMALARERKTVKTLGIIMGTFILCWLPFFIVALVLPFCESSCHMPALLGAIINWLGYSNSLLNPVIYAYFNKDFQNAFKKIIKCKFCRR
Experimental: The [^35S]GTPγS assay was performed according to the method described previously.[49] […] Nonspecific binding was determined with 100 μM of unlabeled GTPγS. The reaction mixture was incubated for 90 min at 36 °C in a volume of 250 μL. […] Next, 96-well Unifilter Plates (PerkinElmer, USA) were presoaked for 1 h with 50 mM Tris-HCl (pH = 7.4) before harvesting. The reaction was terminated by vacuum filtration onto filter plates with the Filter Mate Harvester (PerkinElmer, USA). The samples were then rapidly washed with 2 mL of 50 mM Tris-HCl (pH = 7.4) buffer. The filter plates were dried for 2 h at 50 °C. After drying, 45 μL of EcoScint-20 scintillant (PerkinElmer, USA) was added to every well. The radioactivity was counted in a Trilux MicroBeta^2 counter (PerkinElmer, USA). The data were analyzed with GraphPad Prism 5.0 software (GraphPad Software, San Diego California USA, www.graphpad.com). To determine whether compound-stimulated [^35S]GTPγS binding involved 5-HT1A receptors, two protocols were used. […]
WAY).) Results were expressed as means ± SEM. Curves were fitted with a one-site sigmoidal dose-response equation […]
calculated as the ratio of pEC50 in the presence of WAY100635 divided by the pEC50 of agonist alone. Basal 5-HT1AR activation was set to 100%. Results were analyzed with one-way ANOVA followed by the Bonferroni’s post-hoc test. […]
WAY100635 (10^-10 M - 10^-5 M, WAY). Results were expressed as means ± SEM. Curves were fitted with a one-site sigmoidal dose-response equation and Emax (%) of the EC80 agonist concentration alone and in the presence of WAY100635 were determined from 2 independent experiments. Basal (no ligand added) [35S]GTPγS binding was set to 100%. Results were analyzed with one-way ANOVA followed by the Bonferroni’s post-hoc test.

human 5-HT7b = molecular target: T2, human 5-HT7b (Homo sapiens, UniProt P34969); assay: Radioligand binding at 5-HT7 in transfected HEK293 cells; conditions: for selectivity 5-HT7/5-HT1A: Antilog [pKi (5-HT1AR) – pKi (5-HT7R)]; for Ki: transfected HEK293 cells, [3H]-5-CT, read-out: 5-HT7 pKi ± SEM (converted)
T2 construct: expressed in transfected cells
T2 sequence (P34969 1-432): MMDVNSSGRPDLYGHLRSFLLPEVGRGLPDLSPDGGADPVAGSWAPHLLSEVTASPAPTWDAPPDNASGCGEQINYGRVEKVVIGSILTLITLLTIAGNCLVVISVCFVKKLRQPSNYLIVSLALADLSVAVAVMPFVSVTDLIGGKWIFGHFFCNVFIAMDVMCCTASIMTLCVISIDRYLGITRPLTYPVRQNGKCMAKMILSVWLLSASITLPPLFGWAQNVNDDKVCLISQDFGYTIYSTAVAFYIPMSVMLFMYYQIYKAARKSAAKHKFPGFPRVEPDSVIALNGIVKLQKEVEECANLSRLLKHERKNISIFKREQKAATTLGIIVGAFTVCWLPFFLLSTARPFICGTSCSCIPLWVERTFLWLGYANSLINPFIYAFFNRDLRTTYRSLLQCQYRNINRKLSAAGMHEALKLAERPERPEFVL

human 5-HT6 = molecular target: T3, human 5-HT6 (Homo sapiens, UniProt P50406); assay: Radioligand binding at 5-HT6 in transfected HEK293 cells; conditions: for selectivity 5-HT6/5-HT1A: Antilog [pKi (5-HT1AR) – pKi (5-HT6R)]; for Ki: transfected HEK293 cells, [3H]-LSD, read-out: 5-HT6 pKi ± SEM (converted)
T3 construct: expressed in transfected cells
T3 sequence (P50406 whole entry): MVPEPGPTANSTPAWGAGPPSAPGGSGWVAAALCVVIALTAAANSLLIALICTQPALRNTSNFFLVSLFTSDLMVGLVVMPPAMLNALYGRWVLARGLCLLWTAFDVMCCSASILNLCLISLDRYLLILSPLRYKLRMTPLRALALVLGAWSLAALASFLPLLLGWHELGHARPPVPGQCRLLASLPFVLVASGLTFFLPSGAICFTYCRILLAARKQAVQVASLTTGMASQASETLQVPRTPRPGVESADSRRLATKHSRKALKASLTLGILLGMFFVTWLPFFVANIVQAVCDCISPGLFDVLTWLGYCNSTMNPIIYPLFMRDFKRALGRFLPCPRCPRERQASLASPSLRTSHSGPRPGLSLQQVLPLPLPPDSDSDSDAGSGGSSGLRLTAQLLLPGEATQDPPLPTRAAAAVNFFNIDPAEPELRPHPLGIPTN

5-HT1AR [2] = molecular target: T1, 5-HT1AR; assay: [35S]GTPγS functional 5-HT1A assay in rat hippocampal membranes; assay type: biochemical; conditions: for agonist classification by Emax vs serotonin: [35S]GTPγS binding, partial = half (or lower) as efficacious as serotonin; for Emax: basal 5-HT1AR activation set to 100%, read-out: 5-HT1A Emax (%) ± SEM; for eudismic ratio (EC50S/R): S vs R optical isomer
Experimental: Male Sprague–Dawley rats were decapitated and their brains removed and placed on ice. The hippocampi (for the functional 5-HT1A receptor assay) or frontal cortexes (for the competitive 5-HT2A and 5-HT2C receptor assays) were dissected and homogenized with a glass homogenizer in 30 vol. ice-cold TED buffer (50 mMTris-HCl, 1 mM EDTA, 1 mM dithiotheritol, pH 7.4). Next, the homogenate was centrifuged at 21 000g for 30 min at 4 °C. The pellet was suspended in 30 vol TED buffer (pH 7.4) and incubated in a water bath for 10 min at 37 °C to remove endogenous ligands. The suspension was centrifuged again at 21 000g for 30 min at 4 °C. The pellet was resuspended in 30 vol TED buffer (pH 7.4) and the centrifugation step was repeated. The final pellet was suspended in 10 vol 50 mM Tris-HCl (pH 7.4) and stored at −80 °C until use.[47]
The [^35S]GTPγS assay was performed according to the method described previously.[49] […] Nonspecific binding was determined with 100 μM of unlabeled GTPγS. The reaction mixture was incubated for 90 min at 36 °C in a volume of 250 μL. […] Next, 96-well Unifilter Plates (PerkinElmer, USA) were presoaked for 1 h with 50 mM Tris-HCl (pH = 7.4) before harvesting. The reaction was terminated by vacuum filtration onto filter plates with the Filter Mate Harvester (PerkinElmer, USA). The samples were then rapidly washed with 2 mL of 50 mM Tris-HCl (pH = 7.4) buffer. The filter plates were dried for 2 h at 50 °C. After drying, 45 μL of EcoScint-20 scintillant (PerkinElmer, USA) was added to every well. The radioactivity was counted in a Trilux MicroBeta^2 counter (PerkinElmer, USA). The data were analyzed with GraphPad Prism 5.0 software (GraphPad Software, San Diego California USA, www.graphpad.com). To determine whether compound-stimulated [^35S]GTPγS binding involved 5-HT1A receptors, two protocols were used.
The curves were fitted with a one-site nonlinear regression model. Efficacy (Emax) and potency (pEC50) were calculated from […] from three separate experiments and expressed as the means ± SEM. […] The differences in compound potency and efficacy were evaluated with one-way ANOVA followed by the Bonferroni’s post-hoc test. The baseline G-protein stimulation was set at 100%. One, two, or three symbols represent statistical significance of 0.05, 0.01, and 0.001, respectively.

[3] = Table SI-1, read-out: Emax (%) ± SEM, compound alone
[4] = Table SI-2, read-out: Emax (%) ± SEM of EC80 agonist concentration alone
[5] = rat hippocampal membranes, [35S]GTPγS, three independent experiments, read-out: 5-HT1A pEC50 ± SEM (converted)

| SMILES | Emax (5-HT1AR [1]; [3]) [%] | EC50 (5-HT1AR [1]; Table SI-1) [nM] | shift ratio (5-HT1AR [1]; Table SI-1) | Emax (5-HT1AR [1]; [4]) [%] | selectivity 5-HT7/5-HT1A (human 5-HT7b) | Ki (human 5-HT7b) [nM] | selectivity 5-HT6/5-HT1A (human 5-HT6) | Ki (human 5-HT6) [µM] | functional activity of (S)-1 compared with racemate 1 (5-HT1AR [2]) [fold] | agonist classification by Emax vs serotonin (5-HT1AR [2]) | EC50 (5-HT1AR [2]; [5]) [nM] | Emax (5-HT1AR [2]; rat hippocampal membranes) [%] | eudismic ratio (EC50S/R) (5-HT1AR [2]; [35S]GTPγS) | EC50 (5-HT1AR [2]; [35S]GTPγS functional assay, read-out: EC50) [nM] |
| --- | --- | --- | --- | --- | --- | --- | --- | --- | --- | --- | --- | --- | --- | --- |
| c1ccc(C2(c3ccccc3)OC[C@H](CNCCOc3ccccc3-c3ccncc3)O2)cc1 [(S)-1, N-[(2,2-Diphenyl-1,3-dioxolan-4-yl)methyl]-2-[2-(pyridin-4-yl)phenoxy]ethan-1-ammonium hydrogenoxalate] | 138 ± 2.9 | 15.8 | 39.8 | 134 ± 24.5 | 43 | 398 | 347 | 3.24 | 6 | partial agonists | 15.8 | 138 ± 2.9 |  |  |
| Cn1cncc1-c1ccccc1OCCNCC1COC(c2ccccc2)(c2ccccc2)O1 (racemic) [rac-2, N-((2,2-diphenyl-1,3-dioxolan-4-yl)methyl)-2-(2-(1-methyl-1H-imidazol-5-yl)phenoxy)ethan-1-ammonium hydrogenoxalate] | 184 ± 2.7 | 39.8 | 31.6 | 158 ± 24.6 | 89 | 661 | 676 | 5.01 |  | full agonists | 39.8 | 184 ± 2.7 | 2.6 |  |
| Cn1cncc1-c1ccccc1OCCNC[C@@H]1COC(c2ccccc2)(c2ccccc2)O1 [(R)-2, N-((2,2-Diphenyl-1,3-dioxolan-4-yl)methyl)-2-(2-(1-methyl-1H-imidazol-5-yl)phenoxy)ethan-1-ammonium hydrogenoxalate] | 143 ± 3.6 | 63.1 | 19.9 | 140 ± 18.8 | 66 | 794 | 417 | 5.01 |  | partial agonists | 63.1 | 143 ± 3.6 |  |  |
| c1ccc(C2(c3ccccc3)OC[C@@H](CNCCOc3ccccc3-c3ccncc3)O2)cc1 [(R)-1, N-[(2,2-Diphenyl-1,3-dioxolan-4-yl)methyl]-2-[2-(pyridin-4-yl)phenoxy]ethan-1-ammonium hydrogenoxalate] | 158 ± 5.9 | 63.1 | 10.0 | 149 ± 35.1 | 112 | 501 | 955 | 4.27 |  | partial agonists | 63.1 | 158 ± 5.9 |  |  |
| Cn1cncc1-c1ccccc1OCCNC[C@H]1COC(c2ccccc2)(c2ccccc2)O1 [(S)-2, N-((2,2-Diphenyl-1,3-dioxolan-4-yl)methyl)-2-(2-(1-methyl-1H-imidazol-5-yl)phenoxy)ethan-1-ammonium hydrogenoxalate] | 175 ± 2.7 | 25.1 | 25.1 | 156 ± 21.7 | 148 | 603 | 1349 | 5.5 |  | full agonists | 25.1 | 175 ± 2.7 |  |  |
| c1ccc(C2(c3ccccc3)OCC(CNCCOc3ccccc3-c3ccncc3)O2)cc1 (racemic) [rac-1, N-[(2,2-diphenyl-1,3-dioxolan-4-yl)methyl]-2-[2-(pyridin-4-yl)phenoxy]ethan-1-ammonium hydrogenoxalate] | 151 ± 4.2 | 100 | 6.3 | 138 ± 28.4 | 56 | 513 | 832 | 7.59 |  | partial agonists |  | 151 ± 4.2 | 4.0 | 92.1 |
